Earlier results on two compounds are cited in patent US20090099261A1, “Omega-3 mixtures” (ISI Brands Inc., priority 2007, published 2009).

Molecules are shown by their SMILES.

For this data set the following is noted: dietary intake; Michael J. James et al., Am. J. Clin. Nutr. 77:1140-45 (2003).

`CC/C=C\C/C=C\C/C=C\CCCCCCCC(=O)O` [LNA, Linolenic acid]: the “share of dietary fatty acid converted to EPA” value is ≤ 10%.
Turning to `CC/C=C\C/C=C\C/C=C\C/C=C\CCCCC(=O)O` [SA, stearidonic acid], the “share of dietary fatty acid converted to EPA” value is given as 40%.
